# Test results published in patent publication US8273775B2, “Non-steroidal brassinosteroid mimetic” (priority 2006, dated 2012).
# Test system: gene expression in Col-0 seedling shoots
# Experiment: Microarray analysis (ATH1 Affymetrix) after BL or abrasin treatment
# Format: in vivo, Arabidopsis
# Conditions: 120 min
# Method: FIG. 14: Clustering of gene expression profiles by QT-clust analysis. Clusters illustrating the major patterns of the data sets. Points: BIK-30: 30 μM abrasin 30 min; BL-30: 1 μM brassinolide 30 min; DMSO-30: control DMSO 30 min; BIK-120: 30 μM abrasin 120 min; BL-120: 1 μM brassinolide 120 min; DMSO-120: control DMSO 120 min.
# Col-0 seeds were germinated vertically on ½ MS medium for 7 days under 16 h light/8 h dark cycles. The seedlings were overlaid with liquid ½ MS medium containing 1 μM brassinolide (BL, Fuji Chemical Industries, Ltd., Toyama, Japan), 30 μM abrasin (BIK, ChemBridge Corporation) and DMSO and treated for 30 and 120 min. The shoot parts were collected for RNA isolation. All sampling points were performed in three independent experiments. RNA was extracted using RNeasy kit (Qiagene). […] total RNA per array was used to hybridise the ATH1 Affymetrix Arabidopsis arrays according to standard procedure. The overrepresentation analyses were performed using BiNGO software (Maere et al., 2005).
# We performed a microarray analysis using the Arabidopsis whole genome chip (Affymetix) to determine whether abrasin activated the expression of BR-inducible genes at transcriptional level. Wild-type Col-0 seedlings were exposed to 1 μM BL, 30 μM ABRASIN and DMSO (mock-treatment) for two time points (30 min and 120 min) and the shoot parts were collected for RNA isolation. The analysis of the variance of the normalized gene expression data took in account the variability parameters affecting the expression level: type of hormone treatment, duration of treatment and the interaction between these two.
compound,measurement,setting,value
"CC(C)[C@H](C)[C@@H](O)[C@H](O)[C@@H](C)[C@H]1CC[C@H]2[C@@H]3COC(=O)[C@H]4C[C@H](O)[C@H](O)C[C@]4(C)[C@H]3CC[C@]12C [BL, brassinolide, reference compound]",Fold-change AT4G16780 homeobox-leucine zipper protein 4 (HAT4)/HD-ZIP protein,,0.51
same,Fold-change AT4G17250 expressed protein,,1.82
same,Fold-change AT4G17460 homeobox-leucine zipper protein 1 (HAT1)/HD-ZIP protein 1,,0.19
same,Fold-change AT4G21510 F-box family protein,,2.09
same,Fold-change AT4G23030 MATE efflux protein-related,,2.20
same,Fold-change AT4G23070 rhomboid family protein,,2.03
same,Fold-change AT4G23810 WRKY family transcription factor,,0.55
same,"Fold-change AT4G24160 hydrolase, alpha/beta fold family protein",,1.14
same,Fold-change AT4G25620 hydroxyproline-rich glycoprotein family protein,,0.86
same,Fold-change AT4G25780 pathogenesis-related protein,,0.26
same,Fold-change AT4G27970 C4-dicarboxylate transporter/malic acid transport family protein,,1.28
same,Fold-change AT4G28240 wound-responsive protein-related,,0.41
same,"Fold-change AT4G28490 leucine-rich repeat transmembrane protein kinase, putative",,0.78
same,Fold-change AT4G28703 expressed protein,,0.89
same,Fold-change AT4G28780 GDSL-motif lipase/hydrolase family protein,,2.29
same,Fold-change AT4G29070 expressed protein,,0.74
same,Fold-change AT4G30080 transcriptional factor B3 family protein,,0.49
same,Fold-change AT4G31020 expressed protein,,0.67
same,Fold-change AT4G32280 auxin-responsive AUX/IAA family protein (IAA29),,0.22
same,Fold-change AT4G33050 calmodulin-binding family protein,,0.57
same,Fold-change AT4G33700 CBS domain-containing protein,,0.51
same,Fold-change AT4G34610 homeodomain-containing protein,,0.37
same,Fold-change AT4G36110 auxin-responsive protein,,7.86
same,Fold-change AT4G36780 brassinosteroid signalling positive regulator-related,,0.09
same,Fold-change AT4G37240 expressed protein,,2.33
same,Fold-change AT4G37290 expressed protein,,0.40
same,Fold-change AT4G37590 phototropic-responsive NPH3 family protein,,0.53
same,Fold-change AT4G38840 auxin-responsive protein (SAUR14),,2.53
same,Fold-change AT4G38850 auxin-responsive protein (SAUR-AC1),,3.03
same,Fold-change AT4G38860 auxin-responsive protein (SAUR16),,3.40
same,Fold-change AT4G39400 brassinosteroid insensitive 1 (BRI1),,0.57
same,Fold-change AT5G02020 expressed protein,,0.96
same,Fold-change AT5G05690 cytochrome P450 90A1 (CYP90A1) (CYP90) (CPD),,0.41
same,Fold-change AT5G07690 myb family transcription factor (MYB29),,0.40
same,Fold-change AT5G08130 basic helix-loop-helix (bHLH) family protein (BIM2),,0.42
same,Fold-change AT5G12050 expressed protein,,0.34
same,Fold-change AT5G13180 no apical meristem (NAM) family protein,,0.50
same,Fold-change AT5G13740 sugar transporter family protein,,0.36
same,Fold-change AT5G14730 expressed protein,,0.55
same,Fold-change AT5G16200 50S ribosomal protein-related,,0.20
same,Fold-change AT5G16980 NADP-dependent oxidoreductase,,1.26
same,Fold-change AT5G18750 DNAJ heat shock N-terminal domain-containing protein,,0.56
same,Fold-change AT5G19200 short-chain dehydrogenase/reductase (SDR) family protein,,2.47
same,Fold-change AT5G19340 expressed protein,,0.39
same,Fold-change AT5G24030 C4-dicarboxylate transporter/malic acid transport family protein,,1.90
same,Fold-change AT5G24660 expressed protein,,2.26
same,Fold-change AT5G25240 expressed protein,,3.69
same,Fold-change AT5G25930 leucine-rich repeat family protein,,0.63
same,Fold-change AT5G27350 sugar-porter family protein 1 (SFP1),,2.04
same,Fold-change AT5G27670 histone H2A,,0.50
same,Fold-change AT5G38310 expressed protein,,0.93
same,"Fold-change AT5G38990; AT5G39000 [AT5G38990, protein kinase family protein",,0.74
same,Fold-change AT5G39050 transferase family protein,,0.62
same,Fold-change AT5G39610 no apical meristem (NAM) family protein,,0.22
same,Fold-change AT5G39970 expressed protein,,0.99
same,Fold-change AT5G42830 transferase family protein,,0.62
same,Fold-change AT5G47370 homeobox-leucine zipper protein 2 (HAT2),,0.87
same,Fold-change AT5G48070 putative xyloglucan endotransglycosylase/hydrolase,,1.24
same,Fold-change AT5G48540 33 kDa secretory protein-related,,0.55
same,Fold-change AT5G51550 phosphate-responsive 1 family protein,,0.37
same,"Fold-change AT5G54490 calcium-binding EF-hand protein, putative",,1.75
same,Fold-change AT5G54860 integral membrane transporter family protein,,0.82
same,Fold-change AT5G55970 zinc finger (C3HC4-type RING finger) family protein,,1.82
same,Fold-change AT5G56980 expressed protein,,0.20
same,Fold-change AT5G57190 phosphatidylserine decarboxylase,,0.60
same,Fold-change AT5G57780 expressed protein,,0.12
same,Fold-change AT5G59080 expressed protein,,0.53
same,Fold-change AT5G60200 Dof-type zinc finger domain-containing protein,,1.67
same,Fold-change AT5G60270 lectin protein kinase family protein,,1.82
same,Fold-change AT5G60630 expressed protein,,1.15
same,Fold-change AT5G61600 encodes a member of the ERF (ethylene response factor),,2.06
same,Fold-change AT5G62360 invertase/pectin methylesterase inhibitor family protein,,0.45
same,Fold-change AT5G65310 homeobox-leucine zipper protein 5 (HB-5)/HD-ZIP transcription factor 5,,0.27
same,Fold-change AT5G66420 expressed protein,,0.43
same,Fold-change AT5G66590 allergen V5/Tpx-1-related family protein,,0.58
same,Fold-change AT5G67450 zinc finger (C2H2 type) protein 1 (AZF1),,0.89
same,Fold-change of gene AT4G16140 (proline-rich family protein),"245479_at, Cluster 6",0.75
same,Fold-change of gene AT4G15260 (UDP-glucoronosyl/UDP-glucosyl transferase family protein),"245543_at, Cluster 7",0.67
same,"Fold-change of gene AT5G09440 (phosphate-responsive protein, putative)","245885_at, Cluster 5",0.13
same,Fold-change of gene AT1G77380 (amino acid carrier),"246389_at, Cluster 10",0.40
same,Fold-change of gene AT5G15740 (expressed protein),"246516_at, Cluster 5",0.69
same,Fold-change of gene AT5G65300 (expressed protein),"247177_at, Cluster 5",0.36
same,Fold-change of gene AT5G64890 (expressed protein),"247205_at, Cluster 10",0.85
same,Fold-change of gene AT5G63790 (no apical meristem (NAM) family protein),"247351_at, Cluster 9",0.27
same,Fold-change of gene AT5G62630 (expressed protein),"247444_at, Cluster 7",1.26
same,Fold-change of gene AT5G60850 (Dof-type zinc finger domain-containing protein),"247601_at, Cluster 10",1.10
same,Fold-change of gene AT5G59510 (expressed protein),"247704_at, Cluster 9",0.13
same,Fold-change of gene AT5G58660 (oxidoreductase. 2OG-Fe(II) oxygenase family protein),"247774_at, Cluster 5",2.85
same,Fold-change of gene AT5G54120 (expressed protein),"248190_at, Cluster 5",0.94
same,Fold-change of gene AT5G54130 (calcium-binding EF hand family protein),"248191_at, Cluster 5",0.88
same,Fold-change of gene AT5G52900 (expressed protein),"248282_at, Cluster 6",0.50
same,Fold-change of gene AT5G49100 (expressed protein),"248646_at, Cluster 9",0.38
same,Fold-change of gene AT5G18060 (auxin-responsive protein),"250012_x_at, Cluster 6",0.28
same,Fold-change of gene AT5G09800 (U-box domain-containing protein),"250493_at, Cluster 9",0.30
same,Fold-change of gene AT5G08565 (expressed protein),"250537_at, Cluster 8",0.78
same,Fold-change of gene AT5G03670 (expressed protein),"250907_at, Cluster 5",0.37
same,Fold-change of gene AT5G01740 (expressed protein),"251072_at, Cluster 5",0.47
same,Fold-change of gene AT3G63380 (calcium-transporting ATPase),"251176_at, Cluster 10",0.10
same,Fold-change of gene AT3G60690 (auxin-responsive family protein),"251342_at, Cluster 9",0.27
same,Fold-change of gene AT3G45610 (Dof-type zinc finger domain),"252586_at, Cluster 10",1.05
same,Fold-change of gene AT3G44610 (protein kinase family protein),"252646_at, Cluster 5",1.03
same,Fold-change of gene AT4G34760 (auxin-responsive family protein),"253255_at, Cluster 6",0.62
same,Fold-change of gene AT4G34138 (UDP-glucoronosyl/UDP-glucosyl transferase family protein),"253281_at, Cluster 7",1.74
same,Fold-change of gene AT4G31910 (transferase family protein),"253483_at, Cluster 5",0.78
same,Fold-change of gene AT4G30410 (expressed protein),"253617_at, Cluster 5",0.45
same,Fold-change of gene AT4G30450 (glycine-rich protein),"253629_at, Cluster 5",0.59
same,Fold-change of gene AT4G26200 (1-aminocyclopropane-1-carboxylate synthase),"253999_at, Cluster 9",0.11
same,Fold-change of gene AT4G03400 (auxin-responsive GH3 family protein),"255403_at, Cluster 6",0.48
same,Fold-change of gene AT4G02700 (sulfate transporter),"255443_at, Cluster 7",1.20
same,Fold-change of gene AT1G22190 (AP2 domain-containing transcription factor),"255926_at, Cluster 8",0.89
same,Fold-change of gene AT1G66140 (zinc finger (C2H2 type) family protein),"256528_at, Cluster 6",0.46
same,Fold-change of gene AT3G25655 (expressed protein),"256762_at, Cluster 8",0.12
same,"Fold-change of gene AT3G21420 (oxidoreductase, 2OG-Fe(II) oxygenase family protein)","256818_at, Cluster 7",1.29
same,Fold-change of gene AT3G18280 (protease inhibitor/seed storage/lipid transfer protein),"257066_at, Cluster 5",0.92
same,Fold-change of gene AT1G29440 (auxin-responsive family protein),"257506_at, Cluster 6",0.34
same,"Fold-change of gene AT3G29200 (chorismate mutase, chloroplast (CM1))","257746_at, Cluster 5",0.66
same,Fold-change of gene AT1G13260 (DNA-binding protein RAV1 (RAV1)),"259364_at, Cluster 8",0.67
same,Fold-change of gene AT1G29500 (auxin-responsive protein),"259773_at, Cluster 6",0.39
same,Fold-change of gene AT1G29510 (auxin-responsive protein),"259783_at, Cluster 6",0.36
same,Fold-change of gene AT1G29450 (auxin-responsive protein),"259784_at, Cluster 6",0.37
same,Fold-change of gene AT1G29460 (auxin-responsive protein),"259787_at, Cluster 6",0.28
same,"Fold-change of gene AT1G76690; AT1G76680 ([AT1G76690, 12-oxophytodienoate reductase (OPR2))","259875_s_at, Cluster 7",0.89
same,Fold-change of gene AT1G76620 (expressed protein),"259985_at, Cluster 8",0.37
same,Fold-change of gene AT1G63720 (expressed protein),"260243_at, Cluster 10",0.17
same,Fold-change of gene AT1G48100 (glycoside hydrolase family 28 protein),"260727_at, Cluster 8",1.16
same,Fold-change of gene AT1G12200 (flavin-containing monooxygenase family protein),"261023_at, Cluster 7",1.40
same,Fold-change of gene AT1G12845 (expressed protein),"261203_at, Cluster 6",0.47
same,Fold-change of gene AT1G15550 (gibberellin 3-beta-dioxygenase),"261768_at, Cluster 6",0.52
same,Fold-change of gene AT1G80840 (WRKY family transcription factor),"261892_at, Cluster 9",0.05
same,Fold-change of gene AT1G80080 (leucine-rich repeat family protein),"262040_at, Cluster 6",0.39
same,Fold-change of gene AT1G80130 (expressed protein),"262050_at, Cluster 8",0.36
same,Fold-change of gene AT1G21680 (expressed protein),"262505_at, Cluster 10",1.29
same,Fold-change of gene AT1G34245 (expressed protein),"262543_at, Cluster 6",0.67
same,Fold-change of gene AT1G78460 (SOUL heme-binding family protein),"263126_at, Cluster 7",1.49
same,"Fold-change of gene AT1G78820; AT1G78830 ([AT1G78820, curculin-like (mannose-binding) lectin family protein)","264279_s_at, Cluster 7",0.86
same,Fold-change of gene AT2G42380 (bZIP transcription factor family protein),"265877_at, Cluster 6",0.39
same,Fold-change of gene AT2G45080 (cyclin family protein),"266124_at, Cluster 8",0.27
